Data published in patent US20200147058A1, “KRAS INHIBITOR FOR USE IN TREATING CANCER” (Friedrich-Alexander-Universitat Erlangen-Numberg, priority 2016, published 2020).

Tests used:
[1] = system: 451Lu-R and SkMel28-R cells; test: long-term treatment of PLX-resistant cell lines, surviving tumor cells; type: cell-based, human; conditions: 8 μM DR, 28 days
Hep3B = test: real-time cell proliferation assay; type: cell-based, human; conditions: DR doses
Hep3B cells = test: Western blot pERK- and pAKT protein levels; type: cell-based, human; conditions: Deltarasin vs DMSO
[2] = system: melanoma cell lines (Mel Im, Mel Juso and Mel Ei); test: toxicity (images) in melanoma cell lines; type: cell-based, human; conditions: 5 μM, 24 hours
Text: (§1) FIGS. 4A through 4H depict that small Molecule KRAS Inhibition Reduces Proliferation and Induces Apoptosis in Melanoma. FIGS. 4A and 4B show proliferation (slope of cell index) of Mel Juso (FIG. 4A) and Mel Im (FIG. 4B) cells treated with DMSO and different concentrations of the KRAS small molecule inhibitor Deltarasin (DR). The cell index as dimensionless parameter for cell proliferative ability was used to determine the half maximal inhibitory concentration (IC50, small graphs) of DR. […] FIG. 4D illustrates exemplary images of different melanoma cell lines (Mel Im, Mel Juso and Mel Ei) treated with 5 μM DR or 5 μM DMSO, respectively, for 24 hours. FIGS. 4E and 4F show images of fibroblast cell lines derived from two different donors (F1, F2) and melanocytes (NHEM) treated DR (20 μM, 48 hours) or DMSO (FIG. 4E), and lactate dehydrogenase (LDH) quantification (FIG. 4F) in cell supernatants (optic density, OD) of NHEM after treatment with low dose DMSO, DR (5 μM), and DR (10 μM), respectively.

[3] = system: pancreatic adenocarcinoma cells; conditions: Zimmermann et al., 2013; cited from earlier work
HepG2 hepatoma cells = test: Annexin V / PI staining with FACS analysis of apoptosis; type: cell-based, human; conditions: 8 μM
HCC tumor cells = test: tumor cell toxicity in HCC; type: cell-based, human; conditions: higher doses of DR (>8 μM)
[4] = system: normal human epidermal melanocytes (NHEM); test: toxicity in non-tumor cells (images, LDH); type: cell-based; conditions: doses up to 20 μM
Text: as §1

[5] = system: resistant cell clones (SkMel28-R, 451Lu-R); test: real-time cell proliferation of BRAFi-resistant melanoma cells; type: cell-based, human; conditions: in combination with 5 or 10 μM PLX
Description: FIGS. 6A through 6H depict that KRASi Prevents Emergence of Resistance and KRAS Expression is Regulated Dynamically in Acquired Resistance to BRAFi. […] Asterisks indicate significant differences (p<0.05) as compared to according control (0 μM PLX). FIGS. 6E and 6F are exemplary Western blot images (FIG. 6E) depicting immunostaining of AKT, pAKT, ERK, pERK, and KRAS. Densitometric values (DM) are also shown, representing relative quantifications. Resistant cell lines 451Lu-R and SkMel28-R were treated with 0, 5, or 10 μM PLX for 8 hours, and according summarized quantification of KRAS protein expression (n=3, FIG. 6F).
FIGS. 7A through 7I present KRAS Inhibition Re-sensitizes BRAF Inhibitor Resistant Cells for Inhibition of Proliferation and Induction of Apoptosis. […] show real-time cell proliferation (exemplary proliferation curve depicted in FIG. 6A, summarized slopes of proliferation curves depicted in FIG. 6B) of PLX-resistant cells treated with si-KRAS (KR) or control si-RNA (CTR), respectively, in combination with 5 or 10 μM PLX. FIGS. 7C and 7D show real-time cell proliferation (exemplary proliferation curve depicted in […], summarized slopes of proliferation curves depicted in FIG. 7D) of PLX-resistant cells treated with Deltarasin (DR) or DMSO, respectively, in combination with 5 or 10 μM PLX, according to FIGS. 7A and 7B. […]

Mel Im cells = test: long-term treatment, emergence of surviving tumor cells and drug resistance; type: cell-based, human; conditions: 28 days, IC50 or 2×IC50
Text: as §1
FIGS. 6A through 6H depict that KRASi Prevents Emergence of Resistance and KRAS Expression is Regulated Dynamically in Acquired Resistance to BRAFi. […] Asterisks indicate significant differences (p<0.05) as compared to according control (0 μM PLX). […] Densitometric values (DM) are also shown, representing relative quantifications. […]

## c1ccc(Cn2c(-c3ccc(OC[C@H](C4CCNCC4)n4c(-c5ccccc5)nc5ccccc54)cc3)nc3ccccc32)cc1 [Deltarasin, (S)-1-Benzyl-2-(4-(2-(2-phenyl-1H-benzo[d]imidazol-1-yl)-2-(piperidin-4-yl)ethoxy)phenyl)-1H-benzo[d]imidazole]
[1]
  emergence of surviving tumor cells (cross-resistance to DR): completely abolish the emergence of surviving tumor cells
Hep3B
  inhibition of proliferation: strong dose-dependent inhibition of proliferation
Hep3B cells
  pERK- and pAKT protein levels: significant reduction
[2]
  toxicity in different melanoma cell lines: marked toxicity
[3]
  proliferation of pancreatic adenocarcinoma cells: reduce proliferation
HepG2 hepatoma cells
  induction of apoptosis (FACS): marked dose-dependent induction of apoptosis
HCC tumor cells
  tumor cell toxicity: marked tumor cell toxicity
[4]
  toxic effects in normal human epidermal melanocytes (NHEM): no toxic effects
[5]
  proliferation of PLX-treated, BRAFi-resistant melanoma cells: dose dependent inhibition of proliferation
Mel Im cells
  surviving tumor cells after long-term treatment: no surviving tumor cells were detected
